From patent US20230136299A1, “TREATMENT OF LIVER FAILURE” (HEPYX LIMITED, priority 2020, published 2023) come the findings set out here.

Assay [1] relates to C57B/6 mice with CCL4 + LPS induced ACLF. The assay can be described thus: CCL4 + LPS ACLF mouse model. Conditions: for proliferating (Cyclin A positive) hepatocytes: 5 days treatment. The class given is in vivo. On the procedure: Thereafter injection of LPS (Klebsiella, 4 mg/kg, i.p.) served as a second hit to induce organ injury. […] CCL4- Carbontetrachloride; G-CSF - granulocyte colony stimulating factor.
Thereafter injection of LPS (Klebsiella, 4 mg/kg, i.p.) served as a second hit to induce organ injury.
Thereafter injection of LPS (Klebsiella, 4 mg/kg, i.p.) served as a second hit to induce organ injury. […] It majorly regulated the transition from G2 to M phase. […] E) BCL2 is the effector molecule of the STAT3 pathway which carries anti-apoptotic and antibacterial properties. […] Image J was used for image quantification and group comparison was performed by one-way ANOVA and post-hoc Tukey’s multiple comparison mRNA data is delineated as ddCt value. Western blots were performed with protein lysates pooled from all animals per group. G) Liver protein expression of markers of inflammation, cell death and regeneration/senescence (CC14-LPS 24 h treatment model). Liver lysates from 4 randomly selected animals per group were pooled and applied onto one profiler membrane.
Second, due to the conflicting data concerning the therapeutic benefit of G-CSF the present inventors performed pre-clinical studies in well-established rodent models of ACLF in order to clarify the effect of stem cell mobilisation. C57BL/6 Mice were gavaged with carbon tetrachloride (CCL4) for 6 weeks to induce liver fibrosis and subsequently injected with lipopolysaccharide (LPS) to induce tissue injury and organ failure. One hour after LPS injection mice were treated with G-CSF subcutaneously 250 µg/kg once daily for 5 consecutive days (FIG. 1A).
The inventors then tested whether TLR4 inhibition (e.g. TAK-242) rescues from G-CSF driven injury and inflammation in preclinical models of ACLF.

Assay [2] deals with PMA-activated THP1 macrophage-like cells. The assay can be described thus: THP1 response to LPS after G-CSF stimulation, PMA activated macrophages. In kind it is cell-based. On the procedure:
(§1) Densitometry was measured by using ImageJ and values are depicted as mean pixel density. After sample pooling no statistical comparison could be applied. H) Liver aSMA expression (CC14-LPS 24 hours treatment model) Liver sections were stained for aSMA (n=4 per group) as a marker of stellate cell activation. LPS increased the aSMA positive area from 1.4% ± 0.6 in CC14 animals to 8.6% ± 1.9 (p<0.001) and 9% ± 4.1 (p<0.001) when combined with G-CSF. […] Image J was used for image quantification and group comparison was performed by one-way ANOVA and post-hoc Tukey’s multiple comparison. I) THP1 response to LPS after G-CSF stimulation. THP1 were PMA activated into a macrophage like phenotype and stimulated with LPS (10 ng/mL) ± G-CSF (100 ng/mL) (2 batches in 2 replicates). Treatment was performed with TAK-242 200 nM in two of the groups. RNA extraction to measure cytokine response was performed 3-hr after LPS incubation. LPS induced an upregulation of IL-6 mRNA expression 60.2-fold in THP1 monocytes and 6.2-fold in macrophages which was enhanced by pre-incubation with G-CSF (monocytes 71-fold, macrophages 6.7-fold). TAK-242 reduced IL-6 mRNA expression compared to unstimulated cells to 5.1-fold in monocytes and 2.8-fold in macrophages resembling biological significance. […] G-CSF exaggerated the IL-1b expression 2.5-fold compared to unstimulated cells whereas it remained unchanged in macrophages (1.1-fold compared to unstimulated cells). TAK-242 decreased the IL-1b response in both cell lines (monocytes 1.3-fold and macrophages 0.7-fold compared to unstimulated cells). J) Proliferative effect of G-CSF after CC14. […] G-CSF (250 µg/kg, s.c.) was injected without previous LPS administration once daily for 5-days. Results were compared to groups administered LPS. […] Ki67 expression as a marker of hepatocyte division increased from 0.6% ± 0.2 after CC14 + LPS + G-CSF to 4.1% ± 2.9 (p<0.001) after CC14 + G-CSF. Image J was used for image quantification and group comparison was performed by one-way ANOVA and post-hoc Tukey’s multiple comparison.
(§2) Monocytes and macrophages are major source of cytokine release in liver disease. The inventors therefore tested in vitro, to what extent LPS and G-CSF modulate the cytokine response in PMA activated and native THP1 cells. […] These in vitro findings are in keeping with hepatic IL6 levels, which increased 2.8-fold in G-CSF-treated animals (FIG. 4D). […] The data help to explain the reduction in markers of organ injury in the ACLF animals treated with G-CSF/TAK-242.

A further assay relates to THP1 monocytes. The assay can be described thus: THP1 response to LPS after G-CSF stimulation, monocytes. The class given is cell-based. On the procedure: as §1, §2
The test system of assay [3] is C57B/6 mice with CCL4 + GalN induced ACLF. Put plainly: CCL4 + galactosamine (GalN) non-inflammatory ACLF mouse model.
Procedure: C57B/6 mice were gavaged for 6-weeks with carbon tetrachloride (CC14) 0.5 ml/ml to induce chronic liver injury (n=8 per group). Thereafter, galactosamine (GalN) (1000 mg/kg) was administered to induce a non-inflammatory liver injury and treatment with the RIPK1 inhibitor, RIPA56 3 mg/kg i.p. was initiated every 12-hrs.
Assay [4] has as its system rat ACLF model (BDL + LPS). Put plainly: BDL + LPS rat ACLF model. Conditions: LPS after BDL, TAK-242 10 mg/kg i.p. before and after LPS.
Setting [5] is: LPS +/- G-CSF, TAK-242 10 mg/kg i.p. twice for 24 h, 10 mg/kg.
Where [6] appears, read: LPS 10 ng/mL ± G-CSF 100 ng/mL, TAK-242 200 nM, 3-hr after LPS, compared to unstimulated cells.
Where [7] appears, read: LPS 10 ng/mL ± G-CSF 100 ng/mL, TAK-242 200 nM, compared to unstimulated cells.
Where [8] appears, read: 48 hours treatment, value (range).
[9] abbreviates: RIPA56 3 mg/kg i.p. every 12-hrs, n=3.
Setting [10] is: RIPA56 3 mg/kg i.p. every 12-hrs, p<0.001 compared to CCl4 + GalN, 3 mg/kg.

Entries after “also recorded” stand apart in the source; their conditions may differ.

As for `CCOC(=O)C1=CCCC[C@H]1S(=O)(=O)Nc1ccc(F)cc1Cl` [TAK-242, Ethyl (6R)-6-[N-(2-chloro-4-fluorophenyl)sulfamoyl]cyclohex-1-ene-1-carboxylate], the “proliferating (Cyclin A positive) hepatocytes” value in assay [1] is reported as “not proliferating”; in assay [1] (listed as TAK242) it was “did not enhance”. Besides, the CyclinA2/TUNEL ratio is given as 1.4 in assay [1] (CCl4-LPS 24-hr treatment model) and 0.9 in assay [3] (GalN 48-hr treatment). In addition, the ALT levels entry was “reduction in plasma ALT levels; also recorded: prevented” in assay [1] (setting [5]) and “improving plasma ALT levels; also recorded: significantly reduced” in assay [4] (10 mg/kg). The “liver cell death (TUNEL)” value in assay [1] (setting [5]) is “reduction in liver cell death; also recorded: prevented”; in assay [3] (setting [8]), 1.4% (range 0.4-3.3); in assay [4] (recAP pre-treatment 1000 U/kg i.p. over 4 days), “effective in reducing cell death in the liver; also recorded: significantly reduced”. Besides, the “CDKN2A (p16) mRNA level” value in assay [1] (after LPS injection) is “decreased in a stepwise manner”. Also, the “stellate cells activation (aSMA expression)” value in assay [1] (after LPS injection) is “significantly abrogated”. The G-CSF-related death entry in assay [1] (mouse, in vivo) is recorded as “protected from G-CSF-related death”. In assay [1] (mouse, in vivo), the “hepatic cytokine expression (mRNA) (IL6, TNFa)” value is on record as “reduced”. Moreover, the “liver protein expression of vascular regeneration and regeneration markers (angiopoietin 2, proliferin, PDGF, IL-22, Flt3-ligand, IGFBP-1)” value in assay [1] (proteome profiler, pooled liver lysates, 24-hours) was “reduced”. Also, the “IL-6 mRNA expression” value amounted to 2.8 fold in assay [2] (setting [6]) and 5.1 fold in the assay on THP1 monocytes (setting [6]). Moreover, the IL-1b expression came out at 0.7 fold in assay [2] (setting [7]) and 1.3 fold in the assay on THP1 monocytes (setting [7]). Besides, the “cytokine response to LPS alone or in combination with G-CSF” value (in assay [2] (in the presence of TAK-242); in the assay on THP1 monocytes (in the presence of TAK-242)) was “completely prevented” each time. Moreover, the “Cyclin A2 (proliferating hepatocytes)” value in assay [3] (48 hours treatment) is 1.9% ± 1.6. Further, the “Ki67 (proliferating hepatocytes)” value in assay [3] (48 hours treatment) is 3% ± 2.1. The “p21 (hepatocytes in cell cycle arrest)” value in assay [3] (48 hours treatment) is 7.1% ± 4.5. For the same compound, the “RIPK3 expression (necroptotic cell death)” value in assay [3] (setting [8]) was 1.7% (range 0.9-2.1). Also, the “degree of proliferating (Cyclin A2, Ki67) and senescent (p21) hepatocytes” value in assay [3] (mouse, in vivo) is “did not alter; also recorded: maintained”.
As to `CCC(C)(C)C(=O)N(O)Cc1ccccc1` [RIPA56], in assay [3] (setting [9]), the “Cyclin A2 (hepatocyte proliferation)” value was 0.03% ± 0.1 and the “Ki67 (hepatocyte proliferation)” value is on record as 0.2% ± 0.2. Moreover, in assay [3] (setting [10]), the “GalN-induced cell death (TUNEL)” value is on record as “effectively prevented; also recorded: reduced” and the RIPK3 expression result is recorded as “effectively prevented; also recorded: reduced”.
